From paper PMC9081329, “Pharmacokinetics, Mass Balance, Excretion, and Tissue Distribution of Plasmalogen Precursor PPI-1011” (Frontiers in Cell and Developmental Biology, 2022)

Experiment: Single dose tissue distribution study (QWBA, LSC of blood and plasma)
Type: in vivo, Sprague-Dawley rats
Method: Six male rats were administered a single oral dose of [^14C]PPI-1011 at 100 mg/kg (200 μCi/kg) and one rat was sacrificed at each of the following time points after the administration of the dose: 8, 12, 18, 24, 48, or 168 h. Terminal blood was collected by cardiac puncture directly into tubes with K2EDTA, an aliquot was stored at 4°C until LSC was performed for radioactivity, while the remaining blood was processed to plasma and stored at −20°C until LSC. Following blood collection, the carcasses were frozen in a cold bath with hexanes and dry ice for at least 8 min and then dried and stored at −70°C for at least 5 h. The carcasses were transferred to a −20°C freezer for at least 12 h before embedding.
QWBA was used to determine radioactivity concentrations in the caecum (contents and mucosa), large intestine (contents and mucosa), small intestine (contents and mucosa), stomach (contents and mucosa), brain, choroid plexus, spinal cord, bone, skin, adrenal gland, pineal body, pituitary gland, thyroid gland, liver, kidney (cortex, medulla and whole kidney), urinary bladder (contents and wall), brown fat, white fat, eye (lens, uveal tract and whole eye), epididymis, prostate gland, testis, ovary, uterus, lung, exorbital lachrymal gland, Harderian gland, pancreas, salivary gland, skeletal muscle, myocardium, cardiac blood, bone marrow, lymph node, spleen, and thymus. As well, LSC was used to determine the total radioactivity in the whole blood and plasma.
The whole-body cryosectioning technique described by ([Ullberg, 1977]) was the basis for embedding and cryosectioning the rats assigned to this study. Each frozen carcass was shaved, and then the limbs and tail were removed prior to embedding. Chilled (4°C) 3% CMC (low viscosity) was utilized to provide a firm support of reinforced ice around each rat and for a secure attachment to the microtome stage. Upon thorough freezing of the embedding medium surrounding each rat, the frozen CMC block was removed from the freezing bath and four 3/8 inch holes were drilled into the block. One cryosection quality control standard (CQCS) was prepared with a known amount of radioactivity and at least 1 ml aliquots were added to each of the four drilled holes. CQCS data were utilized to evaluate the overall performance of the QWBA assay.
Each frozen rat was sagittally trimmed (50–100 μm) at −20°C until exposure of a few target tissues employing a Leica Cryomacrocut heavy-duty microtome (Leica Microsystems Inc.,). Disposable stainless steel Feather type H45L knives (Feather Safety Razor Co., Ltd.) were utilized for trimming and sectioning each frozen rat. Several thinner sections (50 μm) were discarded prior to obtaining multiple 50 μm sections at various cryosectioning levels for QWBA analysis. Upon the collection of at least 60 target tissues in multiple cryosectioning levels, the cryosections were kept in the Cryomacrocut cryochamber for a minimum of 18 h for dehydration depending upon the number of cryosections within the cryochamber. After dehydration was complete, the cryosections were transferred to ambient temperature for processing. Mounted whole-body cryosections and a set of 15 standards were sandwiched between a standard phosphor screen and an exposure cassette. All cryosections were exposed to the phosphor screen for 4-days in a cabinet protected with lead prior to scanning using a Typhoon PhosphorImager (Cytiva). MCID™ Analysis software (InterFocus Ltd.) was utilized to generate a calibration curve of the STD nominal concentrations (nCi/g) versus PhosphorImager response (counts/μm^2 minus background) by weighted (1/x) linear regression analysis ([Potchoiba et al., 1995]; [Potchoiba et al., 1998]). The linear regression curve was then utilized to determine the concentration (nCi/g) of total radioactivity in whole-body tissues and blood. Radioactivity concentrations were expressed as μg Eq/g based on the specific activity of the compound in the final dose formulations. […]

[1] = 12 h post single oral 100 mg/kg

## CC/C=C\C/C=C\C/C=C\C/C=C\C/C=C\C/C=C\CCC(=O)O[C@H](CO[14CH2]CCCCCCCCCCCCCCC)COC(=O)CCCCC1CCSS1 (stereo partly shown) [[^14C]PPI-1011]
168 HPD, single dose
  Blood:plasma concentration ratio: 2.96
8 h post single oral 100 mg/kg
  Radioactivity concentration, Adipose - Brown: 171 μg equivalents/g
  Radioactivity concentration, Adipose - Brown (Vessel Wall): 301 μg equivalents/g
  Radioactivity concentration, Adipose - Subcutaneous: 74.0 μg equivalents/g
  Radioactivity concentration, Adipose - Visceral: 83.1 μg equivalents/g
  Radioactivity concentration, Adrenal Gland: 195 μg equivalents/g
  Radioactivity concentration, Bladder Wall: 86.0 μg equivalents/g
  Radioactivity concentration, Blood - QWBA: 35.4 μg equivalents/g
  Radioactivity concentration, Bone Marrow: 23.5 μg equivalents/g
  Radioactivity concentration, Bone Surface: 2.30 μg equivalents/g
  Radioactivity concentration, Cerebellum: 2.70 μg equivalents/g
  Radioactivity concentration, Cerebrum: 2.39 μg equivalents/g
  Radioactivity concentration, Choroid Plexus: 14.9 μg equivalents/g
  Radioactivity concentration, Colliculus: 3.50 μg equivalents/g
  Radioactivity concentration, Diaphragm: 55.6 μg equivalents/g
  Radioactivity concentration, Epididymis: 39.8 μg equivalents/g
  Radioactivity concentration, Esophagus: 17.4 μg equivalents/g
  Radioactivity concentration, Exorbital Lacrimal Gland: 28.7 μg equivalents/g
  Radioactivity concentration, Gastric Mucosa: 91.2 μg equivalents/g
  Radioactivity concentration, Harderian Gland: 14.4 μg equivalents/g
  Radioactivity concentration, Intra-Orbital Lacrimal Gland: 10.4 μg equivalents/g
  Radioactivity concentration, Kidney: 42.9 μg equivalents/g
  Radioactivity concentration, Large Intestines: 12.5 μg equivalents/g
  Radioactivity concentration, Liver: 313 μg equivalents/g
  Radioactivity concentration, Lung: 74.0 μg equivalents/g
  Radioactivity concentration, Lymph Node: 22.7 μg equivalents/g
  Radioactivity concentration, Medulla Oblongata: 2.40 μg equivalents/g
  Radioactivity concentration, Muscle: 10.3 μg equivalents/g
  Radioactivity concentration, Myocardium: 92.0 μg equivalents/g
  Radioactivity concentration, Nasal Turbinates: 16.0 μg equivalents/g
  Radioactivity concentration, Ocular - Uveal Tract: 6.97 μg equivalents/g
  Radioactivity concentration, Ocular - Whole Eye: 1.83 μg equivalents/g
  Radioactivity concentration, Olfactory Bulb: 2.16 μg equivalents/g
  Radioactivity concentration, Pancreas: 66.3 μg equivalents/g
  Radioactivity concentration, Parotid Gland: 39.1 μg equivalents/g
  Radioactivity concentration, Pineal Gland: 11.9 μg equivalents/g
  Radioactivity concentration, Pituitary Gland: 21.2 μg equivalents/g
  Radioactivity concentration, Preputial Gland: 33.6 μg equivalents/g
  Radioactivity concentration, Prostate: 49.6 μg equivalents/g
  Radioactivity concentration, Renal Cortex: 41.4 μg equivalents/g
  Radioactivity concentration, Renal Medulla: 51.0 μg equivalents/g
  Radioactivity concentration, Salivary Gland: 53.3 μg equivalents/g
  Radioactivity concentration, Seminal Vesicles: 12.8 μg equivalents/g
  Radioactivity concentration, Skin - Non-Pigmented: 15.0 μg equivalents/g
  Radioactivity concentration, Small Intestines: 609 μg equivalents/g
  Radioactivity concentration, Spinal Cord: 2.71 μg equivalents/g
  Radioactivity concentration, Spleen: 105 μg equivalents/g
  Radioactivity concentration, Stomach: 22.6 μg equivalents/g
  Radioactivity concentration, Testis: 2.65 μg equivalents/g
  Radioactivity concentration, Thalamus: 2.27 μg equivalents/g
  Radioactivity concentration, Thymus: 10.7 μg equivalents/g
  Radioactivity concentration, Thyroid: 49.9 μg equivalents/g
  Radioactivity concentration, Whole Brain: 2.60 μg equivalents/g
[1]
  Radioactivity concentration, Adipose - Brown: 426 μg equivalents/g
  Radioactivity concentration, Adipose - Brown (Vessel Wall): 383 μg equivalents/g
  Radioactivity concentration, Adipose - Subcutaneous: 242 μg equivalents/g
  Radioactivity concentration, Adipose - Visceral: 170 μg equivalents/g
  Radioactivity concentration, Adrenal Gland: 367 μg equivalents/g
  Radioactivity concentration, Bladder Wall: 19.3 μg equivalents/g
  Radioactivity concentration, Blood - QWBA: 16.4 μg equivalents/g
  Radioactivity concentration, Bone Marrow: 23.0 μg equivalents/g
  Radioactivity concentration, Bone Surface: 1.15 μg equivalents/g
  Radioactivity concentration, Cecum: 450 μg equivalents/g
  Radioactivity concentration, Cerebellum: 2.69 μg equivalents/g
  Radioactivity concentration, Cerebrum: 2.22 μg equivalents/g
  Radioactivity concentration, Choroid Plexus: 17.1 μg equivalents/g
  Radioactivity concentration, Colliculus: 3.03 μg equivalents/g
  Radioactivity concentration, Diaphragm: 59.9 μg equivalents/g
  Radioactivity concentration, Epididymis: 70.9 μg equivalents/g
  Radioactivity concentration, Esophagus: 16.9 μg equivalents/g
  Radioactivity concentration, Exorbital Lacrimal Gland: 34.5 μg equivalents/g
  Radioactivity concentration, Gastric Mucosa: 67.8 μg equivalents/g
  Radioactivity concentration, Harderian Gland: 10.8 μg equivalents/g
  Radioactivity concentration, Intra-Orbital Lacrimal Gland: 8.89 μg equivalents/g
  Radioactivity concentration, Kidney: 45.3 μg equivalents/g
  Radioactivity concentration, Large Intestines: 209 μg equivalents/g
  Radioactivity concentration, Liver: 269 μg equivalents/g
  Radioactivity concentration, Lung: 51.9 μg equivalents/g
  Radioactivity concentration, Lymph Node: 22.6 μg equivalents/g
  Radioactivity concentration, Medulla Oblongata: 2.44 μg equivalents/g
  Radioactivity concentration, Muscle: 12.6 μg equivalents/g
  Radioactivity concentration, Myocardium: 72.6 μg equivalents/g
  Radioactivity concentration, Nasal Turbinates: 10.6 μg equivalents/g
  Radioactivity concentration, Ocular - Uveal Tract: 6.57 μg equivalents/g
  Radioactivity concentration, Ocular - Whole Eye: 2.03 μg equivalents/g
